Like-named read-outs stand apart in the source and are kept apart here.
Molecular target: T1, mUSP18 (Mus musculus, UniProt Q9WTV6)
T1 construct: (46-368); His-tag (N); made in house
T1 sequence (Q9WTV6 46-368): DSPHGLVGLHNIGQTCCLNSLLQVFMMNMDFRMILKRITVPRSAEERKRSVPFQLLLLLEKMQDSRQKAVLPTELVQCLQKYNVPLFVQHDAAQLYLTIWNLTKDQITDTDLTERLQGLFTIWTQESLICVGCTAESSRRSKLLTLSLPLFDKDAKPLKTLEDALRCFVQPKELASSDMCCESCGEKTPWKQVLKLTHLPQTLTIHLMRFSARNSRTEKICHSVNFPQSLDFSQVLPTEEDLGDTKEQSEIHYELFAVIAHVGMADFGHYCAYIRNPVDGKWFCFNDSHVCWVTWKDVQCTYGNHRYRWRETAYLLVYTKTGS
Assay: High-throughput screening, ISG15ct-RhoMP, single dose 1.25 µM
Format: biochemical, murine
Details: for inhibition at 1.25 µM: mUSP18 %inhibition

[1] = carboxylic acid (CA) building block alone, read-out: %inh CA only
[2] = carboxylic acid (CA) with coupling reagents DIC/HOBT, read-out: %inh CA + DIC/HOBT

Structure (SMILES)	inhibition at 1.25 µM [1] [%]	inhibition at 1.25 µM [2] [%]	inhibition of mUSP18 by individual CA's and coupling reagents (screened with and without DIC/HOBt)
O=C1CCC(=O)N(c2ccc(C(=O)O)cc2)N1 [CA209]	-2.74	14.4	–
O=C(O)c1coc(-c2cccnc2)n1 [CA210]	21	4.16	–
O=C(O)c1ccc(=O)n(Cc2ccccc2)n1 [CA211]	14.5	0.49	–
Cc1nc(-c2cccnc2)sc1C(=O)O [CA212]	10.5	0.87	–
CN1CCN(C(=O)c2ccccc2C(=O)O)CC1 [CA213]	9.22	-1.04	–
Cc1cc(C(=O)O)c(C)n1-c1ccon1 [CA214]	6.76	33.1	–
O=C(O)c1cccc(-c2ncn[nH]2)c1 [CA215]	8.13	1.55	–
O=C(O)c1ccnn1C1CCOCC1 [CA216]	6.01	2.43	–
COc1ccc(C(=O)O)cc1S(=O)(=O)N1CCCCCC1 [CA217]	6.36	0.58	–
Cn1nc(C(=O)N2CCOCC2)cc1C(=O)O [CA218]	7.94	0.97	–
Cc1nn(C2CCOCC2)c(C)c1C(=O)O [CA219]	7.18	-0.2	–
O=C(O)C1CCOC2(CCC2)C1 (centres unmarked) [CA220]	7.46	-0.86	–
O=C(O)c1cnn(CCN2CCCC2)c1 [CA221]	5.71	3.5	–
O=C(O)C1(c2cccs2)CC1 [CA222]	3.38	3.8	–
O=C(O)c1cc(-c2ccco2)on1 [CA223]	2.35	4.1	–
O=C(O)c1ccc(Cn2cc(Br)cn2)o1 [CA224]	3.05	5.82	–
O=C(O)C(c1ccccc1)n1cnnn1 (centres unmarked) [CA225]	-0.48	-0.48	–
Cc1csc(N2CCCC(C(=O)O)C2)n1 (centres unmarked) [CA226]	2.29	3.37	–
CC(C(=O)O)n1nc(C(F)(F)F)cc1C1CC1 (centres unmarked) [CA227]	2.61	2.83	–
O=C(O)C1CCCN1C(=O)Cc1ccccc1 (centres unmarked) [CA228]	2.77	4.1	–
O=C(O)CC1(n2cccc2)CCCCC1 [CA229]	3.52	5.66	–
O=C(O)c1cc(S(=O)(=O)NCCCN2CCCC2=O)ccc1Cl [CA230]	4.86	3.56	–
O=C(O)c1ccc(OCn2cc(Cl)cn2)cc1 [CA231]	5.6	6.49	–
O=C(O)Cc1cnn(-c2ccccc2)c1 [CA232]	1.32	8.28	–
CC(C)c1nc(Cn2cc(C(=O)O)ccc2=O)cs1 [CA233]	1.25	15	–
CCS(=O)(=O)N1CCC(C(=O)O)(c2ccccc2)CC1 [CA234]	19.5	0.71	–

Structure (SMILES)	inhibition at 1.25 µM [1] [%]	inhibition at 1.25 µM [2] [%]	inhibition of mUSP18 by individual CA's and coupling reagents (screened with and without DIC/HOBt)
O=C(O)c1ccc(CNS(=O)(=O)c2ccc(F)c(F)c2F)cc1 [CA235]	13.6	1.22	–
O=C(O)c1csc(C2CC2)n1 [CA236]	9.58	1.88	–
CC1CCCC(N2CC(C(=O)O)CC2=O)C1C (centres unmarked) [CA237]	7.37	-3.69	–
O=C(O)c1csc(-c2cnc[nH]2)n1 [CA238]	6.66	-0.05	–
Cc1cc(C(=O)O)c(C)n1C1CC1 [CA239]	7.06	5.98	–
O=C(O)c1cnn(-c2cccc(Br)c2)c1 [CA240]	7.83	6.83	–
CN(CC(=O)N1CCCC(C(=O)O)C1)c1ccc(Cl)cn1 (centres unmarked) [CA241]	5.13	1.85	–
O=C(O)C1CCN(C(=O)c2ccccn2)CC1 [CA242]	6.36	2.43	–
O=C(O)c1ccc(Cn2cncn2)cc1 [CA243]	6.44	2.23	–
O=C(O)c1cc(Cl)nc(N2CCCC2)c1 [CA244]	9.03	3.68	–
Cc1nc(-c2c[nH]c(C(=O)O)c2)cs1 [CA245]	19.9	52.7	could inhibit mUSP18
O=C(O)Cc1ccn(-c2ccccc2)n1 [CA246]	4.69	5.35	–
O=C(O)C1CC(=O)N(C2CCCCCC2)C1 (centres unmarked) [CA247]	2.25	4.63	–
O=C(O)c1cc(C2CCCCC2)[nH]n1 [CA248]	1.65	7.2	–
Cc1ccc(-c2cc(C(=O)O)n[nH]2)s1 [CA249]	4.85	6.81	–
O=C(O)c1ccc(-c2ccccc2)o1 [CA250]	3.02	5.27	–
O=C(O)c1cccnc1N1CCCCC1 [CA251]	-0.46	6	–
O=C(O)C1=NNC(=O)C1c1ccccc1 (centres unmarked) [CA252]	3.55	10.3	–
Cc1nn(-c2ccc(C(F)(F)F)cn2)c(C)c1CC(=O)O [CA253]	3.16	9.05	–
Cc1ccc(N2CCCC(C(=O)O)C2)nc1 (centres unmarked) [CA254]	-2.11	7.64	–
O=C(O)c1ccc(-c2cnco2)cc1 [CA255]	0.58	7.03	–
Cn1nc(C(=O)O)cc1-c1cccnc1 [CA256]	-0.67	11.7	–
Cc1cc(COc2ccc(C(=O)O)cc2Br)no1 [CA257]	1.45	15.8	–
O=C(O)C1CN(S(=O)(=O)C2CC2)C1 [CA258]	20.5	2.25	–
COc1ccc(C(=O)O)cc1S(=O)(=O)NCCc1ccccn1 [CA259]	13.5	2.38	–
O=C(O)c1cn(CC2CCCO2)nn1 (centres unmarked) [CA270]	7.51	8.31	–

The next lines start with the values.

inhibition at 1.25 µM [1] [%]	inhibition at 1.25 µM [2] [%]	inhibition of mUSP18 by individual CA's and coupling reagents (screened with and without DIC/HOBt)	Structure (SMILES)
12.1	1.48	–	Cc1onc(-c2ccccn2)c1C(=O)O [CA260]
10.4	2.36	–	O=C(O)C(=O)N1CCN(c2ccccc2)CC1 [CA261]
8.22	3.17	–	O=C(O)C(F)(F)n1cc(-c2ccccc2)nn1 [CA262]
9.79	2.89	–	O=C(O)C1Cc2ccccc21 (centres unmarked) [CA263]
8.23	4.28	–	O=C(O)c1ccnc(N2CCOCC2)n1 [CA264]
7.65	3.99	–	O=C(O)C1COCCN1C(=O)OCc1ccccc1 (centres unmarked) [CA265]
8.54	4.99	–	O=C(O)c1cncc(N2CCCC2)n1 [CA266]
9.75	5.3	–	CN(Cc1ccccc1)S(=O)(=O)c1ccc(C(=O)O)cc1 [CA267]
8.72	3.94	–	Cn1nc(-c2cccnc2)cc1C(=O)O [CA268]
6.72	5.54	–	O=C(O)c1cnoc1-c1ccccc1C(F)(F)F [CA269]
1	7	–	Cn1cc(-c2cc[nH]n2)c(C(=O)O)n1 [CA271]
5.08	8.26	–	Cc1ccc([1C@@H]2C[1C@H]2C(=O)O)s1 [CA272]
5.18	5.09	–	CN1CCN(C(=O)[1C@@H]2[1C@@H](C(=O)O)C2(C)C)CC1 [CA273]
5.76	5.39	–	Cc1csc(N2CCC(C(=O)O)CC2)n1 [CA274]
8.26	6.3	–	O=C(O)c1cc(Cn2cc(Cl)cn2)cs1 [CA275]
4.94	6.3	–	Cc1nc(COc2ccc(C(=O)O)cc2)no1 [CA276]
5.25	7.6	–	CN(Cc1ccnn1C)C(=O)C1CCCCC1C(=O)O (centres unmarked) [CA277]
3.79	6.92	–	COc1ccc(C(=O)O)cc1S(=O)(=O)NCc1ccccn1 [CA278]
4.45	8.32	–	O=C(O)c1ccc(CN2CCCCCC2)s1 [CA279]
11.4	14.1	–	Cc1nc(-c2cc(C)n(CCC(=O)O)c2C)cs1 [CA280]
4.15	14.1	–	O=C(O)c1ccc(Cl)c(N2CCCS2(=O)=O)c1 [CA281]
10.4	-1.35	–	Cc1noc(C)c1S(=O)(=O)N1CCC(C(=O)O)CC1 [CA282]
7.79	-9.16	–	NS(=O)(=O)c1ccc(CCNS(=O)(=O)c2cccc(C(=O)O)c2)cc1 [CA283]
9.12	-3.37	–	O=C(O)c1ccc(-c2cccs2)[nH]c1=O [CA284]
2.02	-5.92	–	O=C(O)c1cc(N2CCOCC2)ccn1 [CA285]
1.07	-3.16	–	O=C(O)Cc1csc(-c2nnc[nH]2)n1 [CA286]
1.15	-3.85	–	O=C(O)c1ccc(-n2cccn2)cc1 [CA287]
3.53	-1.94	–	Cc1ccccc1COc1cccc(CC(=O)O)c1 [CA288]

Source: publication PMC12668310, “High‐Throughput Synthesis and Screening of a Cyanimide Library Identifies Selective Inhibitors of ISG15‐Specific Protease mUSP18” (Angewandte Chemie (International Ed. in English), 2025)
